The IC50 is the concentration that inhibits the measured activity by half.

The first assay deals with V-ATPase-dependent lysosomal acidification. Briefly: cells. As to conditions: 24 hr Lysotracker IC50; 1000 nM set as activity threshold (FIG. 11-14); read-out: Lyso IC50. The class given is cell-based, human. An excerpt:
Determine effect on V-ATPase activity: Plecomacrolides are known inhibitors of V-ATPase that neutralize normally acidified lysosomes. […] Thus, analogs of the disclosure are further characterized by measuring their effects on lysosome acidification.
LysoTracker® is a fluorophore linked to a weak base that is partially protonated at neutral pH. This form of the probe is capable of freely permeating cell membranes of live cells. In acidic compartments, protonation creates a form that was impermeable causing the probe to accumulate inside the lysosome.
Turning to `C/C=C/[C@H]1O[C@@](O)([C@@H](C)[C@H](O)[C@H](C)[C@H]2OC(=O)/C(OC)=C/C(C)=C/[C@@H](C)[C@@H](O)[C@@H](CC)[C@@H](O)[C@H](C)C/C(C)=C/C=C/[C@@H]2OC)C[C@@H](O[C@H]2C[C@@H](O)[C@H](O)[C@@H](C)O2)[C@@H]1C` [CMC, Concanamycin C, reference compound], the IC50 came to 2.72 nM. With `CC=CC=CC1OC(O)(C(C)C(O)C(C)C2OC(=O)C(OC)=CC(C)=CC(C)C(O)C(C)CC(C)=CC=CC2OC)CC(OC2CC(O)C(O)C(C)O2)C1C` (stereo not shown) [PC-766B, reference compound], the IC50 came out at 2.72 nM.

With `C#CCCC(=O)O[C@H]1C[C@@H](O[C@@H]2C[C@](O)([C@@H](C)[C@H](O)[C@H](C)[C@H]3OC(=O)/C(OC)=C/C(C)=C/[C@@H](C)[C@@H](O)[C@@H](CC)[C@@H](O)[C@H](C)C/C(C)=C/C=C/[C@@H]3OC)O[C@H](/C=C/C)[C@H]2C)O[C@@H](C)[C@@H]1OC(N)=O` [23-Alkyne CMA, 3′-pent-4-ynoate Concanamycins A-C], the IC50 stood at 1.1 nM. The same measure, in the same setting: the value for 19-Deoxy-20-ene Baf A1 was 341 nM. On the same count and under the same terms, the result for 19-Deoxy-21-allylester Baf A1 reads 152 nM; that for `C/C=C/[C@H]1O[C@@](O)([C@@H](C)[C@H](O)[C@H](C)[C@H]2OC(=O)/C(OC)=C/C(C)=C/[C@@H](C)[C@@H](O)[C@@H](C)[C@@H](O)[C@H](C)C/C(C)=C/C=C/[C@@H]2OC)C[C@@H](O[C@H]2C[C@@H](O)[C@H](OC(N)=O)[C@@H](C)O2)[C@@H]1C` [CMB, Concanamycin B, reference compound], 29.6 nM. 19-Deoxy-21-Methoxy Baf A1: the IC50 was found to be 49.6 nM. Same read-out and setting: the value for `C#CCCC(=O)O[C@H]1C[C@@H](O[C@@H]2C[C@](O)([C@@H](C)[C@H](O)[C@H](C)[C@H]3OC(=O)/C(OC)=C/C(C)=C/[C@@H](C)[C@@H](O)[C@@H](CC)[C@@H](O)[C@H](C)C/C(C)=C/C=C/[C@@H]3OC)O[C@H](/C=C/C)[C@H]2C)O[C@@H](C)[C@@H]1OC(N)=O` [23-Alkyne CMC, 3′-pent-4-ynoate Concanamycins A-C] was 5.72 nM; that for `CO/C1=C\C(C)=C\C(C)C(O)C(C)C/C(C)=C/C=C/C(OC)C(C(C)C(O)C(C)C2(O)CC(O[C@@H]3O[C@@H](C)[C@H](O)[C@@H](O)[C@H]3OC)C(C)C(C(C)C)O2)OC1=O` (stereo partly shown) [Leucanicidin, reference compound] was 2.04 nM.

The assay is the same for the next values; noted with them: Homo sapiens, PBMC, 24 h, 24 hr Lysotracker IC50; 1000 nM set as activity threshold (FIG. 11-14); read-out: Lyso IC50.
In the case of `C#CCCC1(CCC(=O)O[C@@H]2C[C@](O)([C@@H](C)[C@H](O)[C@H](C)[C@H]3OC(=O)/C(OC)=C/C(C)=C/[C@@H](C)[C@@H](O)[C@@H](C)C/C(C)=C/C=C/[C@@H]3OC)O[C@H](C(C)C)[C@H]2C)N=N1` [21 Dual Linear Bafilomycin Probe, 21-(3-(3-(but-3-yn-1-yl)-3H-diazirin-3-yl)propanoate) Bafilomycin], the IC50 came to 28.3 nM. Same read-out and setting: the value for `C=C/C=C/C(=O)O[C@@H]1C[C@](O)([C@@H](C)[C@H](O)[C@H](C)[C@H]2OC(=O)/C(OC)=C/C(C)=C/[C@@H](C)[C@@H](O)[C@@H](C)C/C(C)=C/C=C/[C@@H]2OC)O[C@H](C(C)C)[C@H]1C` [21-penta-2,4-dienoate Baf A1, 21-penta-2,4-dienoate Bafilomycin] was 25.1 nM; that for `C#CCCC1(CCC(=O)O[C@H]2C[C@@H](O[C@@H]3C[C@](O)([C@@H](C)[C@H](O)[C@H](C)[C@H]4OC(=O)/C(OC)=C/C(C)=C/[C@@H](C)[C@@H](O)[C@@H](CC)[C@@H](O)[C@H](C)C/C(C)=C/C=C/[C@@H]4OC)O[C@H](/C=C/C)[C@H]3C)O[C@@H](C)[C@@H]2OC(N)=O)N=N1` [23-Dual Linear Probe CMC, 3′-(3-(3-(but-3-yn-1-yl)-3H-diazirin-3-yl)propanoate) Concanamycin C] was 4.7 nM; that for `C/C=C/CC(=O)O[C@@H]1C[C@](O)([C@@H](C)[C@H](O)[C@H](C)[C@H]2OC(=O)/C(OC)=C/C(C)=C/[C@@H](C)[C@@H](O)[C@@H](C)C/C(C)=C/C=C/[C@@H]2OC)O[C@H](C(C)C)[C@H]1C` [21-Penta-3-enoate Baf A1, 21-pent-3-enoate Bafilomycin] was 60.2 nM. The same measure, in the same setting: the result for `CCCCCCCCC(=O)O[C@@H]1C[C@](O)([C@@H](C)[C@H](O)[C@H](C)[C@H]2OC(=O)/C(OC)=C/C(C)=C/[C@@H](C)[C@@H](O)[C@@H](C)C/C(C)=C/C=C/[C@@H]2OC)O[C@H](C(C)C)[C@H]1C` [21-Nonanoate Baf A1, 21-nonanoate Bafilomycin] reads 146 nM; that for `CO/C1=C\C(C)=C\[C@@H](C)[C@@H](O)[C@@H](C)C/C(C)=C/C=C/[C@H](OC)[C@@H]([C@@H](C)[C@@H](O)[C@H](C)[C@H]2C[C@@H](OC(=O)c3ccc(C4(C(F)(F)F)N=N4)cc3)[C@H](C)[C@@H](C(C)C)O2)OC1=O` [21-Y Bafilomycin Probe, 21-(3-(trifluoromethyl)-3H-diazirin-3-yl)benzoate Bafilomycin], at least 1000 nM. Still for that read-out and setting: the result for `C#CCCC(=O)O[C@@H]1C[C@H]([C@@H](C)[C@H](O)[C@H](C)[C@H]2OC(=O)/C(OC)=C/C(C)=C/[C@@H](C)[C@@H](O)[C@@H](C)C/C(C)=C/C=C/[C@@H]2OC)OC(C(C)C)[C@H]1C` (stereo partly shown) [19-Deoxy-21(4-Pentynoate) Baf A1, 19-deoxy-21-pent-4-ynoate Bafilomycin] reads 76.4 nM; that for `C#CCCC(=O)O[C@H]1C[C@@H](O[C@@H]2C[C@](O)([C@@H](C)[C@H](O)[C@H](C)[C@H]3OC(=O)/C(OC)=C/C(C)=C/[C@@H](C)[C@@H](O)[C@@H](C)[C@@H](O)[C@H](C)C/C(C)=C/C=C/[C@@H]3OC)O[C@H](/C=C/C)[C@H]2C)O[C@@H](C)[C@@H]1OC(N)=O` [23-Alkyne CMB, 3′-pent-4-ynoate Concanamycins A-C], 5.75 nM; that for `CO/C1=C\C(C)=C\[C@@H](C)[C@@H](O)[C@@H](C)C/C(C)=C/C=C/[C@H](OC)[C@@H]([C@@H](C)[C@@H](O)[C@H](C)[C@@]2(OC)C[C@@H](O)[C@H](C)[C@@H](C(C)C)O2)OC1=O` [BafA2, Bafilomycin A2], 25.3 nM. `CO/C1=C\C(C)=C\[C@@H](C)[C@@H](O)[C@@H](C)C/C(C)=C/C=C/[C@H](OC)[C@@H]([C@@H](C)[C@@H](O)[C@H](C)[C@H]2C[C@@H](O)[C@H](C)[C@@H](C(C)C)O2)OC1=O` [19-Deoxy Baf A1, 19-deoxy Bafilomycin]: the IC50 stood at 111 nM. Still for that read-out and setting: the value for `C/C=C/[C@H]1O[C@@H]([C@@H](C)[C@H](O)[C@H](C)[C@H]2OC(=O)/C(OC)=C/C(C)=C/[C@@H](C)[C@@H](O)[C@@H](CC)[C@@H](O)[C@H](C)C/C(C)=C/C=C/[C@@H]2OC)C[C@@H](O[C@@H]2C[C@H](O)[C@@H](O)[C@H](C)O2)[C@@H]1C` [21-Deoxy CMC, 21-deoxy CMC] was 7.04 nM; that for `CCCCC(=O)O[C@@H]1C[C@](O)([C@@H](C)[C@H](O)[C@H](C)[C@H]2OC(=O)/C(OC)=C/C(C)=C/[C@@H](C)[C@@H](O)[C@@H](C)C/C(C)=C/C=C/[C@@H]2OC)O[C@H](C(C)C)[C@H]1C` [21-Pentanoate Baf A1, 21-pentanone Bafilomycin] was 62.3 nM. For the compound `C#CCCC(=O)O[C@@H]1[C@H](C)/C=C(C)/C=C(\OC)C(=O)O[C@H]([C@@H](C)[C@@H](O)[C@H](C)[C@@]2(O)C[C@@H](OC(=O)c3ccc(C4(C(F)(F)F)N=N4)cc3)[C@H](C)[C@@H](C(C)C)O2)[C@@H](OC)/C=C/C=C(\C)C[C@@H]1C` [7 Alkyne 21-Y Bafilomycin Probe, 21-(3-(trifluoromethyl)-3H-diazirin-3-yl)benzoate-7-pent-4-ynoate-Bafilomycin], the IC50 was at least 1000 nM. Same read-out and setting: the result for `C#CCCC1(CCC(=O)O[C@H]2C[C@@H](O[C@@H]3C[C@](O)([C@@H](C)[C@H](O)[C@H](C)[C@H]4OC(=O)/C(OC)=C/C(C)=C/[C@@H](C)[C@@H](O)[C@@H](C)[C@@H](O)[C@H](C)C/C(C)=C/C=C/[C@@H]4OC)O[C@H](/C=C/C)[C@H]3C)O[C@@H](C)[C@@H]2OC(N)=O)N=N1` [23-Dual Linear Probe CMB, 3′-(3-(3-(but-3-yn-1-yl)-3H-diazirin-3-yl)propanoate) Concanamycin B] reads 23.2 nM; that for `C#CCCC(=O)O[C@@H]1C[C@](O)([C@@H](C)[C@H](O)[C@H](C)[C@H]2OC(=O)/C(OC)=C/C(C)=C/[C@@H](C)[C@@H](O)[C@@H](C)C/C(C)=C/C=C/[C@@H]2OC)O[C@H](C(C)C)[C@H]1C` [21 Alkyne Bafilomycin Probe, 21-pent-4-ynoate Bafilomycin], 29.1 nM.

Still in this assay, the particulars now being: Homo sapiens, PBMC, 24 h; read-out: Lyso IC50.
For the compound `C/C=C/[C@H]1O[C@@](O)([C@@H](C)[C@H](O)[C@H](C)[C@H]2OC(=O)/C(OC)=C/C(C)=C/[C@@H](C)[C@@H](O)[C@@H](CC)[C@@H](O)[C@H](C)C/C(C)=C/C=C/[C@@H]2OC)C[C@@H](O)[C@@H]1C` [CMF, Concanamycin F], the IC50 was 6.27 nM.

As for `CO/C1=C\C(C)=C\[C@@H](C)[C@@H](O)[C@@H](C)C/C(C)=C/C=C/[C@H](OC)[C@@H]([C@@H](C)[C@@H](O)[C@H](C)[C@@]2(O)C[C@@H](OC(C)=O)[C@H](C)[C@@H](C(C)C)O2)OC1=O` [21-Acetyl Baf, 21-Acetyl Bafilomycin], the IC50 was 22.7 nM. The same measure, in the same setting: the result for `CO/C1=C\C(C)=C\[C@@H](C)C(=O)[C@@H](C)C/C(C)=C/C=C/[C@H](OC)[C@@H]([C@@H](C)[C@@H](O)[C@H](C)[C@@]2(O)CC(=O)[C@H](C)[C@@H](C(C)C)O2)OC1=O` [7,21-Dione Baf A1, 7,21-dione Bafilomycin] reads at least 1000 nM; that for `CO/C1=C\C(C)=C\[C@@H](C)C(=O)[C@@H](C)C/C(C)=C/C=C/[C@H](OC)[C@@H]([C@@H](C)[C@@H](O)[C@H](C)[C@@]2(O)C[C@@H](O)[C@H](C)[C@@H](C(C)C)O2)OC1=O` [7-One Baf A1, 7-one Bafilomycin], at least 1000 nM.

The values are drawn from patent US20240067634A1, “INHIBITORS OF NEF DOWNMODULATION” (priority 2020, published 2024).
